Data taken from patent US20070082945A1, “Discodermolide compositions” (priority 2003, published 2007).

Legend:
[1] = Stability of propylene glycol infusion concentrates (HPLC, UV detector), Example 12; assay type: physicochemical
Experimental: The stability of propylene glycol infusion concentrates comprising discodermolide at different concentrations and various temperatures is determined. The stability is analyzed by determining formation of degradation products in each of the infusion concentrates as a function of time and temperature. Each sample is analyzed by HPLC with a UV detector. […] Under accelerated conditions, the levels of impurities increased at both 25° C./60% relative humidity (RH) and 45° C./60% RH.

[2] = Stability of 16 mg/mL infusion concentrate in propylene glycol (HPLC, UV detector), Example 13; assay type: physicochemical; settings: for Assay / Total Impurities: 16 mg/mL infusion concentrate in PG
Experimental: The stability of an infusion concentrate of 16 mg/mL in propylene glycol at different temperatures is determined. Table 3 describes the amount of degradation product formed over a period of up to 12 weeks. The stability is analyzed by determining formation of degradation products in each of the infusion concentrates as a function of time and temperature. Each sample is analyzed by HPLC with a UV detector.

[3] = Stability of solution diluted 1:1.6 with 16.3% w/v ethanol in 0.9% sodium chloride, ambient conditions; assay type: physicochemical; settings: 0.77 mg/mL solution for infusion
Experimental: In this example, stability of discodermolide in solution diluted 1:1.6 with 16.3% w/v, ethanol in 0.9% sodium chloride solution (0.77 mg/mL) under ambient conditions is measured. Table 5 describes the amount of degradation product formed over a period of up to 24 hours. The stability is analyzed by determining formation of degradation products in each of the infusion solution as a function of time and temperature. Each sample is analyzed y HPLC with a UV detector. The solution for infusion was prepared by diluting a 2.0 mg/ml discodermolide concentrate with 16.3% ethanol in 0.9% sodium chloride solution in a 1:1.6 ration.

microtubules = settings: compared with paclitaxel; cited from earlier work
purified tubulin = settings: among the compounds known to induce polymerization; cited from earlier work
tubulin = settings: competition with paclitaxel; cited from earlier work
[4] = 0.6 mg/mL infusion concentrate in PG, 0-time
[5] = 0.6 mg/mL infusion concentrate in PG, 5° C., 0.5 month
[6] = 0.6 mg/mL infusion concentrate in PG, 5° C., 1 month
[7] = 0.6 mg/mL infusion concentrate in PG, 5° C., 2 months
[8] = 0.6 mg/mL infusion concentrate in PG, 5° C., 3 months
[9] = 0.6 mg/mL infusion concentrate in PG, 25° C./60% RH, 0.5 month
[10] = 0.6 mg/mL infusion concentrate in PG, 25° C./60% RH, 1 month
[11] = 0.6 mg/mL infusion concentrate in PG, 25° C./60% RH, 2 months
[12] = 0.6 mg/mL infusion concentrate in PG, 25° C./60% RH, 3 months
[13] = 0.6 mg/mL infusion concentrate in PG, 45° C./60% RH, 0.5 month
[14] = 0.6 mg/mL infusion concentrate in PG, 45° C./60% RH, 1 month
[15] = 2.0 mg/mL infusion concentrate in PG, 0-time
[16] = 2.0 mg/mL infusion concentrate in PG, 5° C., 0.5 month
[17] = 2.0 mg/mL infusion concentrate in PG, 5° C., 1 month
[18] = 2.0 mg/mL infusion concentrate in PG, 5° C., 2 months
[19] = 2.0 mg/mL infusion concentrate in PG, 5° C., 3 months
[20] = 2.0 mg/mL infusion concentrate in PG, 25° C./60% RH, 0.5 month
[21] = 2.0 mg/mL infusion concentrate in PG, 25° C./60% RH, 1 month
[22] = 2.0 mg/mL infusion concentrate in PG, 25° C./60% RH, 2 months
[23] = 2.0 mg/mL infusion concentrate in PG, 25° C./60% RH, 3 months
[24] = 2.0 mg/mL infusion concentrate in PG, 45° C./60% RH, 0.5 month
[25] = 2.0 mg/mL infusion concentrate in PG, 45° C./60% RH, 1 month
[26] = 3.0 mg/mL infusion concentrate in PG, 0-time
[27] = 3.0 mg/mL infusion concentrate in PG, 5° C., 0.5 month
[28] = 3.0 mg/mL infusion concentrate in PG, 5° C., 1 month
[29] = 3.0 mg/mL infusion concentrate in PG, 5° C., 2 months
[30] = 3.0 mg/mL infusion concentrate in PG, 5° C., 3 months
[31] = 3.0 mg/mL infusion concentrate in PG, 25° C./60% RH, 0.5 month
[32] = 3.0 mg/mL infusion concentrate in PG, 25° C./60% RH, 1 month
[33] = 3.0 mg/mL infusion concentrate in PG, 25° C./60% RH, 2 months
[34] = 3.0 mg/mL infusion concentrate in PG, 25° C./60% RH, 3 months
[35] = 3.0 mg/mL infusion concentrate in PG, 45° C./60% RH, 0.5 month
[36] = 3.0 mg/mL infusion concentrate in PG, 45° C./60% RH, 1 month

With `C=C/C=C\C(C)[C@H](OC(N)=O)[C@@H](C)[C@H](O)[C@@H](C)C/C(C)=C\C(C)C(O)[C@@H](C)/C=C\[C@@H](O)C[C@@H]1OC(=O)[C@H](C)C(O)C1C` (single isomer, unassigned; (+)) [discodermolide, (+)-Discodermolide] the Assay [1, 4] was 100.4 % label claim, the “Total Impurities” value [1, 4] was 0.18% and the Assay [1, 5] was 103.2 % label claim. For the same molecule, the “Total Impurities” value [1, 5] was 0.16%, the Assay [1, 6] was 102.6 % label claim and the “Total Impurities” value [1, 6] was 0.19%. For the same molecule, the Assay [1, 7] was 103.3 % label claim, the “Total Impurities” value [1, 7] was 0.27% and the Assay [1, 8] was 103.8 % label claim. For the same molecule, the “Total Impurities” value [1, 8] was 0.29%, the Assay [1, 9] was 102.8 % label claim and the “Total Impurities” value [1, 9] was 0.65%. For the same molecule, the Assay [1, 10] was 101.9 % label claim, the “Total Impurities” value [1, 10] was 1.08% and the Assay [1, 11] was 102.5 % label claim. For the same molecule, the “Total Impurities” value [1, 11] was 1.18%, the Assay [1, 12] was 102.4 % label claim and the “Total Impurities” value [1, 12] was 1.43%. The Assay [1, 13] was 102.0 % label claim, the “Total Impurities” value [1, 13] was 1.49% and the Assay [1, 14] was 101.6 % label claim. For the same molecule, the “Total Impurities” value [1, 14] was 1.91%, the Assay [1, 15] was 99.9 % label claim and the “Total Impurities” value [1, 15] was 0.19%. For the same molecule, the Assay [1, 16] was 103.2 % label claim, the “Total Impurities” value [1, 16] was 0.16% and the Assay [1, 17] was 100.5 % label claim. For the same molecule, the “Total Impurities” value [1, 17] was 0.18%, the Assay [1, 18] was 102.5 % label claim and the “Total Impurities” value [1, 18] was 0.18%. The Assay [1, 19] was 101.0 % label claim, the “Total Impurities” value [1, 19] was 0.54% and the Assay [1, 20] was 101.1 % label claim. The “Total Impurities” value [1, 20] was 0.55%, the Assay [1, 21] was 99.6 % label claim and the “Total Impurities” value [1, 21] was 0.78%. For the same molecule, the Assay [1, 22] was 101.4 % label claim, the “Total Impurities” value [1, 22] was 1.18% and the Assay [1, 23] was 100.9 % label claim. For the same molecule, the “Total Impurities” value [1, 23] was 1.48%, the Assay [1, 24] was 100.3 % label claim and the “Total Impurities” value [1, 24] was 1.17%. The Assay [1, 25] was 100.0 % label claim, the “Total Impurities” value [1, 25] was 1.69% and the Assay [1, 26] was 102.7 % label claim. The “Total Impurities” value [1, 26] was 0.19%, the Assay [1, 27] was 101.5 % label claim and the “Total Impurities” value [1, 27] was 0.16%. For the same molecule, the Assay [1, 28] was 102.0 % label claim, the “Total Impurities” value [1, 28] was 0.19% and the Assay [1, 29] was 104.1 % label claim. The “Total Impurities” value [1, 29] was 0.17%, the Assay [1, 30] was 104.4 % label claim and the “Total Impurities” value [1, 30] was 0.29%. For the same molecule, the Assay [1, 31] was 102.4 % label claim, the “Total Impurities” value [1, 31] was 0.35% and the Assay [1, 32] was 101.3 % label claim. The “Total Impurities” value [1, 32] was 0.52%, the Assay [1, 33] was 103.1 % label claim and the “Total Impurities” value [1, 33] was 0.69%. For the same molecule, the Assay [1, 34] was 102.1 % label claim, the “Total Impurities” value [1, 34] was 0.69% and the Assay [1, 35] was 100.9 % label claim. For the same molecule, the “Total Impurities” value [1, 35] was 0.58%, the Assay [1, 36] was 101.5 % label claim and the “Total Impurities” value [1, 36] was 0.70%. For the same molecule, the “Levels of impurities under accelerated conditions” value ([1]; 25° C./60% RH and 45° C./60% RH) was “increased”, the “Change in discodermolide content” value ([1]; PG infusion concentrates, after 3 months at 5° C.) was “No significant changes” and the Total impurity amounts ([1]; PG infusion concentrates, after 3 months at 5° C., versus proposed specification limit) was less than 2.0%. For the same molecule, the Assay ([2]; 0-time) was 103.9 % label claim, the “Total Impurities” value ([2]; 0-time) was 0.59% and the Assay ([2]; 5° C., 4 weeks) was 102.2 % label claim. The “Total Impurities” value ([2]; 5° C., 4 weeks) was 0.60%, the Assay ([2]; 5° C., 8 weeks) was 101.4 % label claim and the “Total Impurities” value ([2]; 5° C., 8 weeks) was 0.48%. The Assay ([2]; 5° C., 12 weeks) was 100.7 % label claim, the “Total Impurities” value ([2]; 5° C., 12 weeks) was 0.49% and the Assay ([2]; 25° C./60% RH, 3 weeks) was 100.7 % label claim. For the same molecule, the “Total Impurities” value ([2]; 25° C./60% RH, 3 weeks) was 0.56%, the Assay ([2]; 25° C./60% RH, 4 weeks) was 103.6 % label claim and the “Total Impurities” value ([2]; 25° C./60% RH, 4 weeks) was 0.66%. The Assay ([2]; 25° C./60% RH, 8 weeks) was 100.5 % label claim, the “Total Impurities” value ([2]; 25° C./60% RH, 8 weeks) was 0.68% and the Assay ([2]; 25° C./60% RH, 12 weeks) was 100.1 % label claim. For the same molecule, the “Total Impurities” value ([2]; 25° C./60% RH, 12 weeks) was 0.65%, the Assay ([2]; 50° C./75% RH, 3 weeks) was 99.4 % label claim and the “Total Impurities” value ([2]; 50° C./75% RH, 3 weeks) was 0.65%. The Assay ([2]; 50° C./75% RH, 4 weeks) was 101.6 % label claim, the “Total Impurities” value ([2]; 50° C./75% RH, 4 weeks) was 0.65% and the Assay ([2]; 50° C./75% RH, 8 weeks) was 99.5 % label claim. For the same molecule, the “Total Impurities” value ([2]; 50° C./75% RH, 8 weeks) was 0.65%, the Assay ([2]; 50° C./75% RH, 12 weeks) was 99.2 % label claim and the “Total Impurities” value ([2]; 50° C./75% RH, 12 weeks) was 0.62%. The “Degradation profile and long term stability” value ([2]; 16 mg/mL infusion concentrate in propylene glycol) was “comparable to 2.0 mg/mL”, the Total Impurities ([3]; 0 hours) was 0.20 % area and the Total Impurities ([3]; 2 hours) was 0.23 % area. For the same molecule, the Total Impurities ([3]; 4 hours) was 0.34 % area, the Total Impurities ([3]; 8 hours) was 0.47 % area and the Total Impurities ([3]; 24 hours) was 0.80 % area. The “Effectiveness in mechanism-based assays” value (microtubules) was “more effective than paclitaxel”, the “Potency to induce polymerization of purified tubulin” value (purified tubulin) was “the most potent” and the Binding to tubulin (tubulin) was “binds to tubulin competitively with paclitaxel”.
